Format in all cases: cell-based
Data set [1] has as its system HL60/RV MDR+ AML cells. The data set can be described thus: In vitro cytotoxicity (CellTiter-Glo, 96 h). The conditions noted are these: for IC50: Homo sapiens, HL-60, 96 h, read-out: IC50, HL60/RV, MDR+ AML, Table 6, free drug, 96 hours. On the procedure: (§1) In vitro assays. Cells cultured in log-phase growth were seeded for 24 h in 96-well plates containing 150 μL RPMI 1640 supplemented with 20% FBS. Serial dilutions of antibody-drug conjugates in cell culture media were prepared at 4× working concentrations; 50 μL of each dilution was added to the 96-well plates. Following addition of ADC, cells were incubated with test articles for 4 d at 37° C. After 96 h, growth inhibition was assessed by CellTiter-Glo™ (Promega, Madison, W1) and luminescence was measured on a plate reader. The IC50 value, determined in triplicate, is defined here as the concentration that results in a 50% reduction in cell growth relative to untreated controls.
(In general: In ATP-based viability assays light output follows the ATP content of the culture.)

The subject of data set [2] is Karpas299 ALCL cells. The experiment in a line: In vitro cytotoxicity (CellTiter-Glo, 96 h). The conditions noted are these: for IC50: Homo sapiens, KARPAS-299, 96 h, read-out: IC50, Karpas299, ALCL, Table 6, free drug, 96 hours. On the procedure:
as §1

In data set [3] the test system is HL60 AML cells. The data set can be described thus: cells. Particulars: for IC50: Homo sapiens, HL-60, 96 h, read-out: IC50, HL60, AML, Table 6, free drug, 96 hours. On the procedure: as §1
The subject of data set [4] is L428 MDR+ HL cells. The data set can be described thus: In vitro cytotoxicity (CellTiter-Glo, 96 h). The conditions noted are these: Homo sapiens, L-428, 96 h, read-out: IC50, L428, MDR+ HL, Table 6; free drug, 96 hours.
Data set [5] has as its system L540cy Hodgkin lymphoma cells. The experiment in a line: In vitro cytotoxicity (CellTiter-Glo, 96 h). Particulars: for IC50: L540cy, 96 h, read-out: IC50, L540cy, HL, Table 6, free drug, 96 hours.
Data set [6] has as its system panel of cell lines. The experiment in a line: In vitro cytotoxicity, statements across a panel of cell lines. How it is done:
as §1

Data set [7] relates to DEL ALCL cells. The conditions noted are these: Table 11; cAC10 conjugate, 8-drugs/mAb.
[8] abbreviates: Table 15, cOKT-9 conjugate, 8-drugs/Ab.

Converted amounts (≈) assume the structure as drawn. *1 amine or outer side, *2 acyl side, *3 side chain or, on linkers, in order; H or OH if unused. Where a SMILES comes first, the peptide text is derived from it. [ ]: non-standard residue; d: D form. The star is where a group is joined. Dolaproine = CO[C@@H]([C@@H]1CCCN1)[C@@H](C)C(=O)O; Hexanoyl(6-maleimido) = O=C1C=CC(=O)N1CCCCCC(=O)*; Dil = CC[C@H](C)[C@H](NC)[C@@H](CC(=O)O)OC; PABC = O=C(OCc1ccc(N[*:1])cc1)[*:2]; Cit = NC(=O)NCCC[C@H](N)C(=O)O; NMeV = CN[C@H](C(=O)O)C(C)C Bounds are passed on as bounds.

In the case of `CCCC(=O)O[C@H](C[C@H](C(C)C)N(C)C(=O)[C@@H](NC(=O)[C@H]1CCCCN1C)[C@@H](C)CC)c1nc(C(=O)N[C@@H](Cc2ccccc2)C[C@H](C)C(=O)O)cs1` [Compound 156, (2S,4R)-4-(2-((1R,3R)-1-(butyryloxy)-3-((2S,3S)—N,3-dimethyl-2-((R)-1-methylpiperidine-2-carboxamido)pentanamido)-4-methylpentyl)thiazole-4-carboxamido)-2-methyl-5-phenylpentanoic acid], the IC50 in data set [1] turned out to be 6 nM; in data set [2] it was 0.02 nM; in data set [3] it was 0.1 nM; in data set [4] it was 0.12 nM; in data set [5], 0.1 nM.

In the case of `CC[C@H](C)[C@H](NC(=O)[C@H]1CCCCN1C)C(=O)N(C)[C@H](C[C@@H](OC(=O)CC(C)(C)C)c1nc(C(=O)N[C@@H](Cc2ccccc2)C[C@H](C)C(=O)O)cs1)C(C)C` [Compound 159, (2S,4R)-4-(2-((1R,3R)-3-((2S,3S)—N,3-dimethyl-2-((R)-1-methylpiperidine-2-carboxamido)pentanamido)-1-((3,3-dimethylbutanoyl)oxy)-4-methylpentyl)thiazole-4-carboxamido)-2-methyl-5-phenylpentanoic acid], the “potency loss relative to tubulysin M” value in data set [6] (free drug, across the cell lines of Table 6) is 5-47 fold.

With `CC[C@H](C)[C@H](NC(=O)[C@H]1CCCCN1C)C(=O)N(C)[C@H](C[C@@H](OC(=O)C(C)C)c1nc(C(=O)N[C@@H](Cc2ccccc2)C[C@H](C)C(=O)O)cs1)C(C)C` [Compound 157, (2S,4R)-4-(2-((1R,3R)-3-((2S,3S)—N,3-dimethyl-2-((R)-1-methylpiperidine-2-carboxamido)pentanamido)-1-(isobutyryloxy)-4-methylpentyl)thiazole-4-carboxamido)-2-methyl-S-phenylpentanoic acid], the IC50 amounted to 3 nM in data set [1]; 0.011 nM in data set [2]; 0.08 nM in data set [3]; 0.05 nM in data set [4]; 0.04 nM in data set [5].

For `CC[C@H](C)[C@H](NC(=O)[C@H]1CCCCN1C(=O)CCCCCN1C(=O)C=CC1=O)C(=O)N(C)[C@H](C[C@@H](OC)c1nc(C(=O)N[C@@H](Cc2ccccc2)C[C@H](C)C(=O)O)cs1)C(C)C` [Compound 172, (2S,4R)-4-(2-((1R,3R)-3-((2S,3S)-2-((R)-1-(6-(2,5-dioxo-2,5-dihydro-1H-pyrrol-1-yl)hexanoyl)piperidine-2-carboxamido)-N,3-dimethylpentanamido)-1-methoxy-4-methylpentyl)thiazole-4-carboxamido)-2-methyl-5-phenylpentanoic acid], the “cytotoxic activity in words, conjugates on CD30+ lymphoma cell lines” value in data set [6] (conjugate of the named Drug Linker or named ADC) is “inactive”. Moreover, in data set [2] (Table 11, cAC10 conjugate of the Drug-Linker, 8-drugs/mAb), the “IC50, Karpas299, ALCL” value was >1 µg/mL. Also, the “IC50, L540cy, HL” value in data set [5] (Table 11, cAC10 conjugate, 8-drugs/mAb) is >1 µg/mL. For the same compound, the “IC50, DEL, ALCL” value in data set [7] is >1 µg/mL.

For `CC[C@H](C)[C@@H]([C@@H](CC(=O)N1CCC[C@H]1[C@H](OC)[C@@H](C)C(=O)N[C@@H](Cc1ccccc1)C(=O)O)OC)N(C)C(=O)[C@@H](NC(=O)[C@H](C(C)C)N(C)C(=O)OCc1ccc(NC(=O)[C@H](CCCNC(N)=O)NC(=O)[C@@H](NC(=O)CCCCCN2C(=O)C=CC2=O)C(C)C)cc1)C(C)C` [Compound 193, MC-Val-Cit-PABC-MMAF, reference compound] ({Hexanoyl(6-maleimido)}-V[Cit][PABC][NMeV]V[Dil][Dolaproine]F-OH), in data set [1] (setting [8]), the “IC50, HL60/RV, MDR+ AML” value was determined as 0.015 µg/mL (≈ 0.0113 µM). In addition, the “IC50, HL60, AML” value in data set [3] (setting [8]) was determined as 0.033 µg/mL (≈ 0.0248 µM).

For the origin of these results see patent publication US20240247030A1, “TARGETED DELIVERY OF TERTIARY AMINE-CONTAINING DRUG SUBSTANCES” (Seagen Inc., priority 2014, published 2024).
